One series has as its system HN cells. Put plainly: cell binding experiment, fluorescence microscopy. The series is classed as cell-based, human. The note with it: for fluorescence signal intensity on cells: fixed HN cells, 10 μM, 1 h at r.t. The source says:
(§1) Human OSCC cell lines HN was purchased from the German Collection of Microorganisms and Cell Cultures, Braunschweig, Germany (DSMZ no. ACC 417 (HN) The HN cell line was established from a cervical lymph node metastasis of an invasive squamous cell carcinoma of the soft palate. The metastasis occurred 7 years after treatment of the primary tumour and metastasized to the lung and brain. ^49 As control cells, we used the human ovarian cancer cell line OVMZ6 with low integrin avb6 and high integrin αvβ3 expression. ^50 All cells were cultivated in Dulbecco's Modified Eagle's Medium (DMEM) (Sigma-Aldrich, St. Louis, Mo., USA), supplemented with 10% (v/v) fetal calf serum (FCS) (Gibco, Lifelechnologies™, Carlsbad, Calif., USA).
(§2) HN and OVMZ6 cells were cultivated for 24 h on fibronectin-coated microchamber slides at a density of 25×10^3/well, thereafter fixed in 2% (w/v) PFA for 15 min at r.t. and washed in PBS. The Cy5.5-conjugated compound OM_1231, dissolved in PBS, 5% (v/v) dimethyl sulfoxide (DMSO), was applied at a final concentration of 10 μM for 1 h at r.t., followed by 3 washes in PBS. […] As control peptide served the non-binding cycl(R^betaADfK) labelled via lysine side-chain NH2 group with Cy5.5 fluorescent dye (code OM_1224). After the incubation period, cells were washed 6 times in PBS and slides mounted. Fluorescence signal intensity was detected by the microscope Zeiss LSM 700 (Zeiss) as described above. Images were merged by applying for the fluorescence image the LUT “blue to red”: low intensity: blue; medium intensity: green; and high intensity: red.

For a further series, the target named is α5β1 (Homo sapiens, UniProt P05556+P08648). Put plainly: solid-phase integrin binding assay. The note with it: n = 2.
Sequence of α5β1 (P08648 42-894 limits assumed): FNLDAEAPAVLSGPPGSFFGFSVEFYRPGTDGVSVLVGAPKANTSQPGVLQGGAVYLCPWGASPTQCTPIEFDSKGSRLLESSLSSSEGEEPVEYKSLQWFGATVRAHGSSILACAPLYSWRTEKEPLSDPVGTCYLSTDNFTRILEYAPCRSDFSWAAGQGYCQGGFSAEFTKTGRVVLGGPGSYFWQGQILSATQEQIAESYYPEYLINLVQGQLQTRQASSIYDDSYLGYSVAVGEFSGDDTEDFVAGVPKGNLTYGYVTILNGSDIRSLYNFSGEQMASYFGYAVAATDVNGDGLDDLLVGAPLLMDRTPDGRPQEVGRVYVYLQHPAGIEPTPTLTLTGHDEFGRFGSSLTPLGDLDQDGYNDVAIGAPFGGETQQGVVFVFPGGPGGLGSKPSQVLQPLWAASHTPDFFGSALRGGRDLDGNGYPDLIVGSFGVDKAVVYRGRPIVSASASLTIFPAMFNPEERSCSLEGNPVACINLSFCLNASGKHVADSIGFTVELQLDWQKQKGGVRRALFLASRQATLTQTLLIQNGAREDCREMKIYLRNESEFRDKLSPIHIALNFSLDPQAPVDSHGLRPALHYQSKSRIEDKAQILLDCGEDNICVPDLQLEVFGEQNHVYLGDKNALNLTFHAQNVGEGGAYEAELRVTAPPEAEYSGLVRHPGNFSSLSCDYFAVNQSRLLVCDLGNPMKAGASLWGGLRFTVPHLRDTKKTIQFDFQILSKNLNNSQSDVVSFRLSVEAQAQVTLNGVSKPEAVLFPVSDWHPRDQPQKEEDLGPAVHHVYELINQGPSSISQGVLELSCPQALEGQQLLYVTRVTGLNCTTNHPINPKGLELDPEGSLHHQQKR
Sequence of α5β1 (P08648 895-995 partner limits assumed): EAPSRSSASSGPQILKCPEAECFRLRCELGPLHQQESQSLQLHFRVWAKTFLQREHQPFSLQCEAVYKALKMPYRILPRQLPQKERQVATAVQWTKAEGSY
Sequence of α5β1 (P05556 21-728 limits assumed): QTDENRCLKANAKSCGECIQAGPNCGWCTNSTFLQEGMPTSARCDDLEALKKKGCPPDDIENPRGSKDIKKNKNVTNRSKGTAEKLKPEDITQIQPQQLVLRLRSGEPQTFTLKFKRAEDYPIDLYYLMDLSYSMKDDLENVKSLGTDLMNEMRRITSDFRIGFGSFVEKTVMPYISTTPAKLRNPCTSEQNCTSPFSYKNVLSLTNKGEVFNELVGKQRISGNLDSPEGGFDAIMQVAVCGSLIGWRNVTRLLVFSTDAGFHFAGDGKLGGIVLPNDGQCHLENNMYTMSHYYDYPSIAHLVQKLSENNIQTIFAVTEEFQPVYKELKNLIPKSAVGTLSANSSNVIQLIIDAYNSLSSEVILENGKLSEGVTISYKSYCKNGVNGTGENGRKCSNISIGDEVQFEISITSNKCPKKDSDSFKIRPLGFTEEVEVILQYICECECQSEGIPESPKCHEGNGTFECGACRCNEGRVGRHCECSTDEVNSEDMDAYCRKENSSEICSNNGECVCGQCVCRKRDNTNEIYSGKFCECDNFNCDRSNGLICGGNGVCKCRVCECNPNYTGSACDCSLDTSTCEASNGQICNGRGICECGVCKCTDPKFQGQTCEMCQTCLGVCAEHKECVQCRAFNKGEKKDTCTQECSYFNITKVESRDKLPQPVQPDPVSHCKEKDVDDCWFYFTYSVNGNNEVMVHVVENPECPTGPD
For the next series, the target named is αvβ3 (Homo sapiens, UniProt P05106+P06756). Put plainly: solid-phase integrin binding assay. The note with it: n = 2.
Sequence of αvβ3 (P06756 31-889 limits assumed): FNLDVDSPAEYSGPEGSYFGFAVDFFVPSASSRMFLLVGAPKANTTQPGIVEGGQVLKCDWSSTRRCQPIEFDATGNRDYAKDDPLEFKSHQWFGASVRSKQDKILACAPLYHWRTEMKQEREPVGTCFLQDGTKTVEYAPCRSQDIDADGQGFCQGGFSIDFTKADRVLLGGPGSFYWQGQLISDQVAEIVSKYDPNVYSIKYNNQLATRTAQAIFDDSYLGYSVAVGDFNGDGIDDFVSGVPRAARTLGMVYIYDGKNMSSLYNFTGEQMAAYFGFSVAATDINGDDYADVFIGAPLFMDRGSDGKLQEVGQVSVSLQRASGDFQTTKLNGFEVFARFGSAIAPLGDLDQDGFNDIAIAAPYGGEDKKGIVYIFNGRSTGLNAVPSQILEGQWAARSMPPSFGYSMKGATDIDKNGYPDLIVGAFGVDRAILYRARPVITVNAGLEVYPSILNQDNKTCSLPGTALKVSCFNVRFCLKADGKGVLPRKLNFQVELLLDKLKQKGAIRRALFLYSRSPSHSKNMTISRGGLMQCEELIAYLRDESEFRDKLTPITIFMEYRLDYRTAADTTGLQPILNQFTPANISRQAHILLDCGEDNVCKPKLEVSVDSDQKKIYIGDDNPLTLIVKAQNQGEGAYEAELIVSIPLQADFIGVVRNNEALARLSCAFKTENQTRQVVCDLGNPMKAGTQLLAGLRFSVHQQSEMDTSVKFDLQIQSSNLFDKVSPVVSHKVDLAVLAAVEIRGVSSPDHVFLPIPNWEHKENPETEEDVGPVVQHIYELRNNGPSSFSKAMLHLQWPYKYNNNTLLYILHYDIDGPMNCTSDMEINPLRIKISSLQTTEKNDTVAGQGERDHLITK
Sequence of αvβ3 (P06756 891-1048 partner limits assumed): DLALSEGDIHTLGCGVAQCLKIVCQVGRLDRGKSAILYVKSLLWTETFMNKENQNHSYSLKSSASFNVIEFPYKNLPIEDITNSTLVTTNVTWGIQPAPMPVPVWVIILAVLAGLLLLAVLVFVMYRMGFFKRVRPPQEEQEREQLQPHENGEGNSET
Sequence of αvβ3 (P05106 27-788): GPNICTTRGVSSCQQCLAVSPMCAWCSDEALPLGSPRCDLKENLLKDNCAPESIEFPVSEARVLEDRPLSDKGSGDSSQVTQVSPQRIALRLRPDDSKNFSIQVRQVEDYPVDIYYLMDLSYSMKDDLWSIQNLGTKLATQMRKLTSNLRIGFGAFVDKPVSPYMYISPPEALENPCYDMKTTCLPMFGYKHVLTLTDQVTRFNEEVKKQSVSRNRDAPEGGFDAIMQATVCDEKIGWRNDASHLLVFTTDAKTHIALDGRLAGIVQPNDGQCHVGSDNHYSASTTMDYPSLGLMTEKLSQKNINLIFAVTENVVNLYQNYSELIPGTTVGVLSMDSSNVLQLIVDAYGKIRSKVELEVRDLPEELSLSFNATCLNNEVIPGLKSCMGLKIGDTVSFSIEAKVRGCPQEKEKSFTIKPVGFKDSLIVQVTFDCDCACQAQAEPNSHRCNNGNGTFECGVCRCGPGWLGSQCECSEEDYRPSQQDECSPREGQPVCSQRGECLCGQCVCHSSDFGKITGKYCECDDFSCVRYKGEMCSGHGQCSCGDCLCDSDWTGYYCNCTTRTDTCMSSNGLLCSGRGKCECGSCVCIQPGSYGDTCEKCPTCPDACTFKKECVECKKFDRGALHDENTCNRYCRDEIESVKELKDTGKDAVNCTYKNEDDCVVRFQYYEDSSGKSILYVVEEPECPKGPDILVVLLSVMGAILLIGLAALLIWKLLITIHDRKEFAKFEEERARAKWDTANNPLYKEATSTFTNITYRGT
The target in another series is αvβ6 (Homo sapiens, UniProt P06756+P18564). Briefly: solid-phase integrin binding assay. The note with it: n = 2.
Sequence of αvβ6 (P06756 31-889 limits assumed): as the sequence (P06756 31-889 limits assumed) above
Sequence of αvβ6 (P06756 891-992 partner limits assumed): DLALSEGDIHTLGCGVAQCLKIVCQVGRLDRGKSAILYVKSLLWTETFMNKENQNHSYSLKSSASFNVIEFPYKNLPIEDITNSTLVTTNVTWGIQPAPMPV
Sequence of αvβ6 (P18564 22-707 limits assumed): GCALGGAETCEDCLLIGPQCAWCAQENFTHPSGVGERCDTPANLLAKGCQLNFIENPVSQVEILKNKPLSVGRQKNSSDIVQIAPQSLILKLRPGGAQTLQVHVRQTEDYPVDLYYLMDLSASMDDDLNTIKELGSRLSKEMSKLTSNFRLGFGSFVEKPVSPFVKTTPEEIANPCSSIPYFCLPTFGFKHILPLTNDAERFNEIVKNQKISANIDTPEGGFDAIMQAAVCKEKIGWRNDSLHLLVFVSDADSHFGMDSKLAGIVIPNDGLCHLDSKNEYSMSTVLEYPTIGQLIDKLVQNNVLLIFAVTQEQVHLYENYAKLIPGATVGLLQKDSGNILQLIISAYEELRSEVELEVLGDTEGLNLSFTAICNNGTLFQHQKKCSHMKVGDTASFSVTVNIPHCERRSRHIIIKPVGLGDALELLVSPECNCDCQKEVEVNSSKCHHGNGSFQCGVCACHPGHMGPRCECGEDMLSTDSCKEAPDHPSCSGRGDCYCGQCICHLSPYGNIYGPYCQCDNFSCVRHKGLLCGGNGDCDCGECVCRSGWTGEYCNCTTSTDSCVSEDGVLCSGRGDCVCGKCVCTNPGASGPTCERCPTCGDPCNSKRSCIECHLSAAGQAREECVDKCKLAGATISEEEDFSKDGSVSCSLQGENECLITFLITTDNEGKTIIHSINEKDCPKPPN
The target of another series is αvβ5 (Homo sapiens, UniProt P06756+P18084). Briefly: solid-phase integrin binding assay. The following applies: n = 2. On the procedure:
(§3) The integrin binding affinity and selectivity profile of the compounds was determined by a solid-phase binding assay as previously described.^48

A short description of series [1]: biodistribution and nonspecific binding in control animals (control TX, sham TX, unoperated). The note with it: for renal clearance: 6 h after injection. As for the experimental part:
Similarly, healthy oral epithelium was transplanted for control experiments.
Control experiments were performed with sham operations and transplantation with healthy control tissue, which were imaged with FRX110 and FRX109 as the control tracer.
The specificity of the binding was investigated in the in vivo model with the control tracer FRX109. FRX109 was visualized in mice with a sham graft (sham TX) of human carcinoma tissue (no tissue was transplanted).

The subject of the next series is invasive HNSCC tissue. Briefly: molecular bioimaging in HNSCC PDX mouse model. The series is classed as in vivo, NOD/SCID mice. On the procedure: An orthotopic HNSCC PDX (head and neck squamous cell carcinoma patient derived xenotransplant) mouse model was developed that allows the analysis of invasive, orthotropic human carcinoma tissue. HNSCC tissue samples were transplanted into the neck area of NOD/SCID mice. This provides epithelial derived carcinoma tissue in a mesenchymal tissue context to mimic the epithelial-mesenchymal interface between invasive carcinoma tissue and stroma. […]
Bioimgaing was performed relying on equipment described in ^42 using a 750 nm CW laser diode (BWF2-750-0, B & W Tek, Newark, Del., USA) with a maximum power of 300 mW was used to excite the fluorophores. […] The laser power was measured at a working distance of 15 cm at 85 mW/cm 2, which is lower than the maximum permissible exposure according to the standard of the American National Standards Institute (ANSI). A short-pass filter (E700SP, Chroma Technology, Rockingham, Vt., USA) was used to eliminate component of the field illumination NIRF signal to preclude interference between the fluorescence detection field and the field illumination light path (F1). […]
The measurements of the average fluorescence intensity/pixels were made in two regions of interests (ROIs). […]
The quotient ROI1/ROI2 of the average fluorescence intensity/pixel is given as tumor tissue to background ratio (TBR). […]

Another series has as its target αvβ8 (Homo sapiens, UniProt P06756+P26012). Put plainly: solid-phase integrin binding assay. The note with it: n = 2.
Series [2] is described as follows: biodistribution by fluorescence intensity in HNSCC PDX mice. On the procedure: Relying on fluorescence intensity measurements, the distribution and accumulation of FRX103 in the organism was determined over the time period shown.
Another series concerns the target αIIbβ3 (Homo sapiens, UniProt P05106+P08514). Briefly: solid-phase integrin binding assay. The note with it: n = 2. As for the experimental part:
as §3

The next series has as its system OVMZ6 cells. Put plainly: cell binding experiment, fluorescence microscopy. The note with it: fixed OVMZ6 cells (low αvβ6, high αvβ3), 10 μM. The format is cell-based, human.
Text: as §1, §2

The mark [3] stands for this setting: 0-24 h post injectionem, FIG. 5b.

Where a SMILES comes first, the peptide text is derived from it. Side-chain parts run from the residue outwards. [ ]: non-standard residue; d: D form. The star is where a group is joined. IRDye800CW = CC1(C)C(/C=C/C2=C(Oc3ccc(S(=O)(=O)O)cc3)C(=C/C=C3/N(CCCCS(=O)(=O)O)c4ccc(S(=O)(=O)O)cc4C3(C)C)/CCC2)=[N+](CCCCCC(=O)*)c2ccc(S(=O)(=O)[O-])cc21; NMeK = CN[C@@H](CCCCN)C(=O)O; Ahx = NCCCCCC(=O)O Some results are limits rather than exact numbers.

Sequence of αvβ8 (P06756 31-889 limits assumed): as the sequence (P06756 31-889 limits assumed) above
Sequence of αvβ8 (P06756 891-992 partner limits assumed): as the sequence (P06756 891-992 partner limits assumed) above
Sequence of αvβ8 (P26012 43-684 limits assumed): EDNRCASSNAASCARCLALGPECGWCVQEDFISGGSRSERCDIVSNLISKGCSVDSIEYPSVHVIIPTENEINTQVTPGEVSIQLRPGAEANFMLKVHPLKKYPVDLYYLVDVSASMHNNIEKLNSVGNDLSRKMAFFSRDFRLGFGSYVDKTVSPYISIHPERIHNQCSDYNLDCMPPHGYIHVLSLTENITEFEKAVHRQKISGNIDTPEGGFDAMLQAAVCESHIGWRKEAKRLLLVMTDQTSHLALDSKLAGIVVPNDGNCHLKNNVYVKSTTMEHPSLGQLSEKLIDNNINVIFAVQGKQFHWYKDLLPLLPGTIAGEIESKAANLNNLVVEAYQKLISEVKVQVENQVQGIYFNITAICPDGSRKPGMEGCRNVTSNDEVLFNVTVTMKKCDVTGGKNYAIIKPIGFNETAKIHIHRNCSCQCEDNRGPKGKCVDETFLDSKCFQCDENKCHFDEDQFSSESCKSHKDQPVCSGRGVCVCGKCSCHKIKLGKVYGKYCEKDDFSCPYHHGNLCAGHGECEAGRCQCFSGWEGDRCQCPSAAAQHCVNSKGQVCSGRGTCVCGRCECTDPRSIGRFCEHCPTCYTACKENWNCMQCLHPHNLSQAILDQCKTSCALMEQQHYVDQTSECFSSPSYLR

Consider “cyc(R-betaAla-D-f-K(Ahx-Cy5.5)) [OM1224]”, for which the “fluorescence signal intensity on cells” value in the series with HN cells is recorded as “did not result in fluorescence signal intensity”.
In general, IC50 refers to the concentration needed to halve the response being measured. A high value points to weaker potency. Regarding `CC(C)C[C@@H]1NC(=O)[C@H](CC(=O)O)NC(=O)CNC(=O)[C@H](CCCNC(=N)N)NC(=O)[C@H](Cc2ccccc2)NC(=O)[C@H](CCCCNC(=O)CCCCCNC(=O)CCCCC[N+]2=C(/C=C/C3=C(Oc4ccc(S(=O)(=O)O)cc4)C(=C/C=C4/N(CCCCS(=O)(=O)O)c5ccc(S(=O)(=O)O)cc5C4(C)C)/CCC3)C(C)(C)c3cc(S(=O)(=O)[O-])ccc32)N(C)C(=O)[C@H]2CCCN2C(=O)[C@H](Cc2ccccc2)NC(=O)[C@H](C)NC1=O` [FRX110, cyc(FRGDLAFp(NMe)K(Ahx-IRDye ® 800CW))], the IC50 is 0.037 ± 0.006 µM at α5β1; 0.408 ± 0.061 µM at αvβ3; 0.0022 ± 0.0002 µM at αvβ6; more than 10 µM on αvβ5; 0.129 ± 0.036 µM at αvβ8. For the same compound, the renal clearance result in series [1] (FIG. 5c) is “good renal clearance”. Also, the “tissue to background (TBR) ratio” value in series [1] (control animals, FIG. 5c) is “low”; in the series with invasive HNSCC tissue (5th week p. TX, i.v. tail vein, FIG. 4a), “high”. Also, the unspecific tracer enhancement entry in series [1] (control animals, FIG. 5c) was “without unspecific tracer enhancement”. Besides, the “binding to invasive growing carcinoma xenotransplants” value in the series with invasive HNSCC tissue (1st to 12th week p. TX) is given as “specific binding”. In series [2] (setting [3]), the TBR was determined as 1.0. The “unspecific accumulation or binding” value in series [2] (setting [3]) is “does not reveal unspecific accumulation or binding”. Besides, in [2] (i.v.), the “time to elimination of unbound compound via the renal system” value is not above 24 h.
In the case of `CC(C)C[C@@H]1NC(=O)[C@H](CC(=O)O)NC(=O)[C@H](C)NC(=O)[C@H](CCCNC(=N)N)NC(=O)[C@H](Cc2ccccc2)NC(=O)[C@H](CCCCNC(=O)CCCCCNC(=O)CCCCC[N+]2=C(/C=C/C3=C(Oc4ccc(S(=O)(=O)O)cc4)C(=C/C=C4/N(CCCCS(=O)(=O)O)c5ccc(S(=O)(=O)O)cc5C4(C)C)/CCC3)C(C)(C)c3cc(S(=O)(=O)[O-])ccc32)N(C)C(=O)[C@H]2CCCN2C(=O)[C@H](Cc2ccccc2)NC(=O)[C@H](C)NC1=O` [FRX109, cyc(FRADLAFp(NMe)K(Ahx-IRDye ® 800CW))] (cyclo(FRADLAF[dP][NMeK]([Ahx-IRDye800CW]))), the IC50 was more than 1 µM at α5β1; more than 10 µM at αvβ3; 0.122 ± 0.012 µM at αvβ6; more than 10 µM on αvβ5; more than 1 µM at αIIbβ3; more than 4 µM on αvβ8. The renal clearance entry in series [1] (FIG. 5c) was “good renal clearance”.
In the case of `CC(C)C[C@@H]1NC(=O)[C@H](CC(=O)O)NC(=O)CNC(=O)[C@H](CCCNC(=N)N)NC(=O)[C@H](Cc2ccccc2)NC(=O)[C@H](CCCCNC(=O)CCCCCNC(=O)CCCCC[N+]2=C(/C=C/C3=CC(=C/C=C4/N(C)c5ccc6ccccc6c5C4(C)C)/CCC3)C(C)(C)c3c2ccc2ccccc32)N(C)C(=O)[C@H]2CCCN2C(=O)[C@H](Cc2ccccc2)NC(=O)[C@H](C)NC1=O` [FRX103, cyc(FRGDLAFp(NMe)K(Ahx-Cy7.5))], in series [1] (control TX (healthy epithelial grafting)), the “nonspecific accumulation in the area of transplantation” value is on record as “no nonspecific accumulation”. Also, in series [1] (mouse, in vivo), the “signal in liver and pancreas” value was “persistent signal”. The “time p.i. of best ratio between specific signal and background signal” value in [2] (i.v., HNSCC PDX mice) was 24 h. Besides, in [2] (i.v., up to 24 h p.i., FIG. 5a), the “accumulation in the area of carcinoma tissue” value is on record as “constant accumulation”. Further, in series [2] (mouse, in vivo, iv), the “elimination after 24 h” value was “does not show any elimination”.
`CC(C)C[C@@H]1NC(=O)[C@H](CC(=O)O)NC(=O)CNC(=O)[C@H](CCCNC(=N)N)NC(=O)[C@H](Cc2ccccc2)NC(=O)[C@H](CCCCNC(=O)CCCCCNC(=O)CCCCC[N+]2=C(/C=C/C=C/C=C3/N(C)c4ccc5ccccc5c4C3(C)C)C(C)(C)c3c2ccc2ccccc32)N(C)C(=O)[C@H]2CCCN2C(=O)[C@H](Cc2ccccc2)NC(=O)[C@H](C)NC1=O` [OM1231, cyc(FRGDLAFp(NMe)K(Ahx-Cy5.5))]: the “recognition of cellular integrin αvβ3” value with OVMZ6 cells is given as “did not recognize cellular integrin αvβ3”. Also, in the series with HN cells (HN cells, unlabeled OM_1204 at 10-fold molar excess 1 h prior to OM_1231 (10 μM)), the “fluorescence signal intensity after blocking” value was “strong reduction in fluorescence signal intensity”. The “fluorescence signal intensity on cells” value in the series on HN cells was “strong fluorescence signal intensity on cell membranes”. In addition, the values for the IC50 on αvβ6 and at αvβ8 were 0.027 ± 0.002 µM and 0.234 ± 0.033 µM, respectively.

(Values after patent US20220211877A1, “COMPOUND FOR INTRAOPERATIVE MOLECULAR BIOIMAGING, METHOD OF MAKING THE SAME, USE THEREOF IN INTRAOPERATIVE MOLECULAR BIOIMAGING AND SURGICAL METHOD COMPRISING INTRAOPERATIVE MOLECULAR BIOIMAGING” (Klinikum rechts der lsar der Techischen Universität München, priority 2018, published 2022).)
